US11572350B1, “Benzothia(di)azepine compounds and their use as bile acid modulators” (Albireo AB, priority 2020, dated 2023)

Columns and labels:
human IBAT = target: T1, human IBAT (Homo sapiens, UniProt Q12908); assay: IBAT (h/m) assay: 3H-taurocholic acid uptake in human IBAT-overexpressing cells; type: cell-based; details: 0.25 μM 3H-taurocholic acid and 5 μM cold taurocholic acid, 20 minutes, highest test concentration 10 μM, read-out: hIBAT IC50
T1 construct: expressed in transfected cells; kept under Puromycin selection
T1 sequence (Q12908 1-348): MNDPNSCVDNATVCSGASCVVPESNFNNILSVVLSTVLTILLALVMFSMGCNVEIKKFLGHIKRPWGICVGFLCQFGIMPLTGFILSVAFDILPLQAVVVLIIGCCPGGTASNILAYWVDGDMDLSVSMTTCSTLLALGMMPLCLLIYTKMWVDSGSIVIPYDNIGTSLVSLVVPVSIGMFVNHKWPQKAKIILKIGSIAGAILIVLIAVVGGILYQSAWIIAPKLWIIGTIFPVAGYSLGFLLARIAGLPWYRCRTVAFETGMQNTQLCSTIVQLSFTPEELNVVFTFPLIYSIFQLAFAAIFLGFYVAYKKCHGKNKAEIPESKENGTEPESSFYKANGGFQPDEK
Experimental: IBAT (h/m) Assay Protocol
10,000 cells (Human or Mouse IBAT-overexpressing cells) were seeded in 96-wells plate (Corning CLS3809) in 200 μL MEM-alpha medium (Gibco 12571-063) supplemented with 10% FBS (Gibco 10438026) containing Puromycin (Gibco A1113803) (10 μg/mL) and incubated at 37° C. in 5% CO2 for 48 hours. After incubation, media was decanted from the wells and cells were washed two times with 300 μL of basal MEM-alpha medium (FBS-free). After decanting basal MEM-alpha medium each time, plates were tapped against paper towel to ensure maximum removal of residual media. Test inhibitor dilutions (highest test concentration being 10 μM, 3-fold serial dilution, 10 points) prepared in DMSO (Sigma D2650) were added in incubation mix (maintaining 0.2% final DMSO concentration) containing 0.25 μM 3H-taurocholic acid (ARC ART-1368) and 5 μM of cold taurocholic acid (Sigma T4009). 50 μL of incubation mix containing test inhibitors was then added to the wells (in duplicate) and the plates were incubated for 20 minutes in a CO2 incubator at 37° C. After incubation, the reaction was stopped by keeping the plates on ice water mix for 2-3 minutes and then the incubation mix was aspirated completely from the wells. The wells were washed two times with 250 μL of chilled unlabelled 1 mM taurocholic acid dissolved in HEPES (Gibco 15630080)-buffered (10 mM) HBSS (Gibco 14175079) (pH 7.4). The plates were tapped against a paper towel after every wash to ensure maximum removal of blocking buffer.
(§1) 100 μL of MicroScint-20 (PerkinElmer 6013621) was added to the wells and kept overnight at room temperature before reading the plates in TopCount NXT™ Microplate Scintillation and Luminescence Counter from PerkinElmer under 3H Test protocol (set at 120 seconds reading time per well).
(§2) Preparation of Test Compound Dilutions
(§3) All test compounds were provided in powder form at room temperature. 10 mM DMSO stocks of the test compounds were prepared, aliquoted and stored at −20° C. From the 10 mM DMSO stock of the compounds, a 3-fold serial dilution in DMSO was prepared to get a total of 10 dilutions of the test compounds. 0.5 μL of this dilution in DMSO was added to 250 μL of FBS-free basal media containing 3H-taurocholic acid and cold taurocholic acid to prepare the incubation mixture.

[1] = Bidirectional permeability assay (Caco-2 cells); type: in vitro ADME; details: human, FaSSIF donor buffer, 120 minutes at 37° C.; for Papp A→B at 120 min, 10 µM: Caco-2, pH 7.4, absorptive direction (A2B); for Papp B→A at 120 min, 10 µM: Caco-2, pH 7.4, secretory direction (B2A)
From the text: Bidirectional Permeability Assay (Caco-2 Cells)
HepaRG-Based Assay Protocol

human LBAT = target: T2, human LBAT (Homo sapiens, UniProt Q14973); assay: LBAT (h/m) assay: 3H-taurocholic acid uptake in human LBAT-overexpressing cells; type: cell-based; details: 0.3 μM 3H-taurocholic acid and 7.5 μM cold taurocholic acid, 20 minutes, read-out: hLBAT IC50
T2 construct: expressed in transfected cells; kept under Geneticin selection
T2 sequence (Q14973 1-349): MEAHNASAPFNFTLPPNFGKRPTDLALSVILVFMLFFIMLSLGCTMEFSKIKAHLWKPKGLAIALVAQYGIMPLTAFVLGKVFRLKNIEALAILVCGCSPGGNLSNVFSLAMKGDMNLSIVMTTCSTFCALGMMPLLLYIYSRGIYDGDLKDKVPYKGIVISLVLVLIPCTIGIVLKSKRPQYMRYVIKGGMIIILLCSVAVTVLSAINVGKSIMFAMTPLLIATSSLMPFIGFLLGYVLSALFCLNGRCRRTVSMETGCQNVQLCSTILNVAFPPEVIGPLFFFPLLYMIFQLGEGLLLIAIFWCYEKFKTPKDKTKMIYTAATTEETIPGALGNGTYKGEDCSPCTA
Experimental: LBAT (h/m) Assay Protocol
20,000 cells (Human or Mouse LBAT-overexpressing cells) were seeded in 96-wells plate (Corning CLS3809) in 100 μL MEM-alpha medium (Gibco 12571-063) supplemented with 10% FBS (Gibco 10438026) containing Geneticin (Gibco 10131-027) (1 mg/mL) and incubated at 37° C. in 5% CO2 for 24 hours. After incubation, media was decanted from the wells and cells were washed two times with 300 μL of basal MEM-alpha medium (FBS-free). After decanting basal MEM-alpha medium each time, plates were tapped against paper towel to ensure maximum removal of residual media. For human LBAT, incubation mix was prepared by adding test inhibitor dilutions (3-fold serial dilution in DMSO (Sigma D2650), 10 points) in MEM-alpha (without FBS) containing 0.3 μM 3H-taurocholic acid (ARC ART-1368) and 7.5 μM cold taurocholic acid (Sigma T4009) (maintaining 0.2% final DMSO concentration). For mouse LBAT, incubation mix was prepared by adding test inhibitor dilutions (3-fold serial dilution in DMSO, 10 points) in MEM-alpha (without FBS) containing 0.3 μM 3H-taurocholic acid and 25 μM cold taurocholic acid maintaining 0.2% final DMSO concentration). 50 μL of incubation mix containing test inhibitors was then added to the wells (in duplicate) and the plates were incubated for 20 minutes in a CO2 incubator at 37° C. After incubation, the reaction was stopped by keeping the plates on ice water mix for 2-3 minutes and then the incubation mix was aspirated completely from the wells. The wells were washed two times with 250 μL of chilled unlabelled 1 mM taurocholic acid dissolved in HEPES (Gibco 15630080)-buffered (10 mM) HBSS (Gibco 14175079) (pH 7.4). The plates were tapped against a paper towel after every wash to ensure maximum removal of blocking buffer.
as §1, with “well, with normal plate orientation).” for “well).”
as §2, §3

IC50 (human IBAT) [nM] | Papp A→B at 120 min, 10 µM [1] [×10⁻⁶ cm/s] | Papp B→A at 120 min, 10 µM [1] [×10⁻⁶ cm/s] | IC50 (human LBAT) [nM] | SMILES
1670 | 7.3 | 17.2 | 1 | CCCCC1CN(c2ccc(F)cc2)c2cc(SC)c(O/C=C/C(=O)O)cc2S(=O)(=O)N1 (racemic) [Example 1, (E)-3-((3-Butyl-5-(4-fluorophenyl)-7-(methylthio)-1,1-dioxido-2,3,4,5-tetrahydro-1,2,5-benzothiadiazepin-8-yl)oxy)acrylic acid]
> 10000 | 11.3 | 8.9 | 2.6 | CCCCC1CN(c2ccc(F)cc2)c2cc(SCC)c(O/C=C/C(=O)O)cc2S(=O)(=O)C1 (racemic) [Example 7, (E)-3-((3-Butyl-7-(ethylthio)-5-(4-fluorophenyl)-1,1-dioxido-2,3,4,5-tetrahydro-1,5-benzothiazepin-8-yl)oxy)acrylic acid]
827 | 2.9 | 8.5 | 1.6 | CCCCC1CN(c2ccc(F)cc2)c2cc(SC)c(O/C=C(\F)C(=O)O)cc2S(=O)(=O)C1 (racemic) [Example 10, (Z)-3-((3-butyl-5-(4-fluorophenyl)-7-(methylthio)-1,1-dioxido-2,3,4,5-tetrahydro-1,5-benzothiazepin-8-yl)oxy)-2-fluoroacrylic acid]
1380 | 1 | 3.6 | 2.5 | CCCCC1CN(c2ccc(F)cc2)c2cc(SCC)c(O/C=C(\F)C(=O)O)cc2S(=O)(=O)C1 (racemic) [Example 16, (Z)-3-((3-butyl-7-(ethylthio)-5-(4-fluorophenyl)-1,1-dioxido-2,3,4,5-tetrahydro-1,5-benzothiazepin-8-yl)oxy)-2-fluoroacrylic acid]
248 | 4.3 | 6.1 | 1.9 | CCCCC1CN(c2ccc(F)cc2)c2cc(SC)c(O/C=C(\F)C(=O)O)cc2S(=O)(=O)N1C (racemic) [Example 19, (Z)-3-((3-butyl-5-(4-fluorophenyl)-2-methyl-7-(methylthio)-1,1-dioxido-2,3,4,5-tetrahydro-1,2,5-benzothiadiazepin-8-yl)oxy)-2-fluoroacrylic acid]
4100 | 6.5 | 8.7 | 2.6 | CCCCC1CN(c2ccc(F)cc2)c2cc(SCC)c(O/C=C/C(=O)O)cc2S(=O)(=O)N1 (racemic) [Example 30, (E)-3-((3-butyl-7-(ethylthio)-5-(4-fluorophenyl)-1,1-dioxido-2,3,4,5-tetrahydro-1,2,5-benzothiadiazepin-8-yl)oxy)acrylic acid]
– | 15.5 | 18.6 | 2 | CCCCC1CN(c2ccc(F)cc2)c2cc(SCC)c(O/C=C/C(=O)O)cc2S(=O)(=O)C1 (single isomer, unassigned) [Example 9, (E)-3-((3-butyl-7-(ethylthio)-5-(4-fluorophenyl)-1,1-dioxido-2,3,4,5-tetrahydro-1,5-benzothiazepin-8-yl)oxy)acrylic acid]
647 | 1.1 | 3.1 | 2.6 | CCCCC1CN(c2ccc(F)cc2)c2cc(SCC)c(O/C=C(\F)C(=O)O)cc2S(=O)(=O)C1 (single isomer, unassigned) [Example 18, (Z)-3-((3-butyl-7-(ethylthio)-5-(4-fluorophenyl)-1,1-dioxido-2,3,4,5-tetrahydro-1,5-benzothiazepin-8-yl)oxy)-2-fluoroacrylic acid]
135 | 2.7 | 10.5 | 0.8 | CCCCC1CN(c2ccc(F)cc2)c2cc(SC)c(O/C=C(\F)C(=O)O)cc2S(=O)(=O)N1C (single isomer, unassigned) [Example 20, (Z)-3-((3-butyl-5-(4-fluorophenyl)-2-methyl-7-(methylthio)-1,1-dioxido-2,3,4,5-tetrahydro-1,2,5-benzothiadiazepin-8-yl)oxy)-2-fluoroacrylic acid]
> 3330 | – | – | 10.1 | CCCCC1CN(c2ccc(F)cc2)c2cc(SC)c(O/C=C(\F)C(=O)O)cc2S(=O)(=O)N1C (single isomer, unassigned) [Example 21, (Z)-3-((3-butyl-5-(4-fluorophenyl)-2-methyl-7-(methylthio)-1,1-dioxido-2,3,4,5-tetrahydro-1,2,5-benzothiadiazepin-8-yl)oxy)-2-fluoroacrylic acid]
> 3330 | – | – | 70 | CCCCC1CN(c2ccc(F)cc2)c2cc(SCC)c(O/C=C(\F)C(=O)O)cc2S(=O)(=O)N1C (single isomer, unassigned) [Example 23, (Z)-3-((3-butyl-7-(ethylthio)-5-(4-fluorophenyl)-2-methyl-1,1-dioxido-2,3,4,5-tetrahydro-1,2,5-benzothiadiazepin-8-yl)oxy)-2-fluoroacrylic acid]
431 | 1.9 | 3.9 | 0.9 | CCCCC1CN(c2ccccc2)c2cc(SCC)c(O/C=C(\F)C(=O)O)cc2S(=O)(=O)N1C (single isomer, unassigned) [Example 25, (Z)-3-((3-butyl-7-(ethylthio)-2-methyl-1,1-dioxido-5-phenyl-2,3,4,5-tetrahydro-1,2,5-benzothiadiazepin-8-yl)oxy)-2-fluoroacrylic acid]
1130 | – | – | 131 | CCCCC1CN(c2ccccc2)c2cc(SCC)c(O/C=C(\F)C(=O)O)cc2S(=O)(=O)N1C (single isomer, unassigned) [Example 26, (Z)-3-((3-butyl-7-(ethylthio)-2-methyl-1,1-dioxido-5-phenyl-2,3,4,5-tetrahydro-1,2,5-benzothiadiazepin-8-yl)oxy)-2-fluoroacrylic acid]
